For one data set, the system named is P388 leukemia system. The conditions noted are these: mouse; cited from earlier work.
For another data set, the system named is L1210 leukemia system. The conditions noted are these: mouse; cited from earlier work.
For data set [1] the following is noted: cited from earlier work.
For data set [2] the following is noted: within two minutes after administration; cited from earlier work.
Data set [3] in a line: in vitro stability of microreservoirs and liposomes (optical density ratio A400/A600, thin layer chromatograms). The conditions noted are these: after sonication and centrifugation. Format: physicochemical.
Protocol: Both of the suspensions were then spun at 100,000 g for one hour to remove any undispersed lipid.
Aliquots of 4 ml of each sample were then placed into stoppered curvettes and the samples were incubated at 37° C. At various points in time optical densities of the two solutions at 400 nm and 600 nm were determined. […] Since both structures initially had essentially the same molecular size, the ratio of A400/A600 is an indication of any increase in the particle size due to the breakdown of the structural organization of the liposome.
For data set [4] the following is noted: in vivo; cited from earlier work.
A further data set has as its system P388 tumor cells. The conditions noted are these: 4 mg/kg ip daily for 5 days.
A short description of data set [5]: plasma kinetics of daunomycin in rats, intravenous. The protocol:
A control sample of free daunomycin at the same concentration and in the same buffer was also prepared.
0.5 ml of blood was taken at various time points from each rat. The plasma was separated from the blood samples and assayed for daunomycin fusing fluorescence. The data thus obtained are plotted in FIG. 10 as a function of time after injection.

Data set [6] in a line: affinity for and efflux of estradiol undecanoate from vesicular and nonvesicular microreservoirs. The class given is physicochemical. On the procedure: The resulting liquid was sonicated at 40° C. for 20 minutes under a nitrogen atmosphere and passed down a Sepharose 4B Column. […] The material in the void volume of the column consisted of the nonvesicular form, whereas the material in the internal volume consisted of the vesicular form.

The nature of data set [7]: binding of adriamycin to microreservoirs. The class given is physicochemical. The protocol: With this 2 mg (3.45 μmoles) of adriamycin was used. In the five samples, the amount of phosphatidic acid in the total lipid constituent was varied from zero to 25%. […] The aqueous suspensions were each sonicated at 52° C. for 15 minutes. Each sample was passed down through a 2.5×50 cm Sephadex G-50 gel column to separate free and bound adriamycin.
2875 μmoles of purified soybean phosphatidyl chloine (specific activity 2296 ^3 H dpm/μmole) 720 μmoles of soybean phosphatidic acid and 720 μmoles of cholesteryl oleate (specific activity of 3638 ^14 C dpm/μmole) were dissolved in choloroform and taken to dryness by pumping overnight against a vacuum. The resulting solid material was hydrated with 20 ml of 10 mM of trihydroxymethylamine (pH 9.1) and the liquid was sonicated at 52° C. under a nitrogen atmosphere for 15 minutes. The pH of the solution was lowered to 7.2 and then it was centrifuged for one hour at 100,000 g. 34.9 mg of adriamycin was added to the clear supernatant and it was then allowed to incubate for 30 minutes at room temperature. After this incubation, the ionic strength of the solution was increased to 0.154 M NaCl; and it was passed down a 4.3×37 cm G-50 Sephadex G-50 gel column using 0.154 M NaCl and 10 mM trihydroxymethylamine as the eluting solvent.

In another data set the test system is L1210 leukemic cells. The experiment in a line: chemotherapy of L1210 leukemic mice with adriamycin, survival. The conditions noted are these: 4 mg/kg ip, days 1 through 5; day 24; listed as free adriamycin.
The test system of another data set is normal mice. In words: toxicity of adriamycin in normal mice, survival. To be noted: 4 mg/kg ip daily for five days, six mice; listed as free adriamycin. The class given is in vivo. On the procedure:
Two dosages levels of the drug were chosen--4 mg/kg and 2 mg/kg. In each case, six normal mice received the injections each day for five days and then they were observed thereafter to determine the number of survivors. The results are plotted in FIG. 16.

Data set [8] can be described thus: plasma kinetics of imidocarb in rats, tail vein injection. To be noted: 24 hours (FIG. 24). The class given is in vivo. The protocol:
Plasma samples were taken at various time points and the amount of imidocarb in these samples was determined by measurements of their radio-activity.

A short description of data set [9]: tissue distribution of free imidocarb and microreservoir-borne imidocarb. Format: in vivo, rats. The conditions noted are these: 4 hours after injection. An excerpt: Various tissues, such as muscle, spleen, liver and kidney, were taken from the animals. These tissues were combusted in a Searle combustion apparatus and the resulting ^14 CO2 was collected and counted for radioactivity.

The structures appear in SMILES notation. “Also recorded” adds a separate entry of the source.

Protocol for L1210 leukemic cells: 72 normal mice were each innoculated with 10^6 L1210 leukemic cells by intraperitoneal injection on day zero. […] The drug in all cases was also given by intraperitoneal injection and the dosages were repeated daily on days 1 through 5. The dosage levels chosen were 4 mg/kg, 2 mg/kg, 1 mg/kg and 0.5 mg/kg.
Protocol for P388 tumor cells: A number of mice were injected intraperitoneally with 1×10^6 P388 tumor cells. […] One group of mice, used as a control, received no drug in any form. Five mice were used for each protocol and two different dosage levels, 4 mg/kg and 2 mg/kg, were used.

For the compound `CCCCC(=O)OCC(=O)C1(O)Cc2c(O)c3c(c(O)c2C(OC2CC(NC(=O)C(F)(F)F)C(O)C(C)O2)C1)C(=O)c1c(OC)cccc1C3=O` (stereo not drawn) [AD 32, N-Trifluoroacetyladriamycin-14-Valerate], the antitumor activity result in the data set with P388 leukemia system and with L1210 leukemia system was “significantly greater antitumor activity than adriamycin or daunomycin” each time. The “solubility in aqueous buffer / water” value in [1] is reported as “totally insoluble in an aqueous buffer”.
`COc1cccc2c1C(=O)c1c(O)c3c(c(O)c1C2=O)C[C@@](O)(C(C)=O)C[C@@H]3O[C@H]1C[C@H](N)[C@H](O)[C@H](C)O1` [daunomycin]: in data set [2], the “fraction left to reach the target tissue” value was about 5% and the “fraction that has left the bloodstream within two minutes” value is given as “about 95%”. Also, the “degradation by thin layer chromatograms of the centrifugates” value in data set [3] is recorded as “no evidence of degradation”. In [4], the toxicity entry is on record as “known to be toxic, particularly since it tends to concentrate in the heart tissues”. The “chemotherapeutic effect / toxicity (survivors)” value in the data set on P388 tumor cells is given as “demonstrated a toxicity measurably greater than the tumor cells”. The “presence in the bloodstream after 3 3/4 hours” value in data set [5] (printed "33/4 hours", 4 mg/kg iv) was “virtually absent from the bloodstream”. For the same compound, the concentration at 0.25 h in [5] (rat, in vivo, iv, 4 mg/kg) is about 400 ng/mL. In data set [5] (rat, in vivo, iv, 10 mg/kg), this compound showed a concentration at 1 h of about 500 ng/mL, a concentration at 3 h of about 300 ng/mL and a concentration at 6 h of about 140 ng/mL.
With `CCCCCCCCCCC(=O)O[C@H]1CC[C@H]2[C@@H]3CCc4cc(O)ccc4[C@H]3CC[C@]12C` [estradiol undecanoate], the “solubility in aqueous buffer / water” value in [1] is on record as “essentially insoluble in water”. In addition, in [6] (incubated with unsonicated egg phosphatidyl choline dispersion), the “efflux / retention of estradiol undecanoate” value is recorded as “remained associated with both forms of the microreservoirs”. In addition, in data set [6] (ratio of estradiol undecanoate to cholesteryl oleate), the “affinity for vesicular vs nonvesicular microreservoirs” value was “higher affinity for the vesicular form of the microreservoirs than for the nonvesicular form”.
As for `COc1cccc2c1C(=O)c1c(O)c3c(c(O)c1C2=O)C[C@@](O)(C(=O)CO)C[C@@H]3O[C@H]1C[C@H](N)[C@H](O)[C@H](C)O1` [adriamycin], the “binding of adriamycin to the microreservoirs relative to daunomycin” value in [7] is given as “does not bind as strongly to the microreservoirs as does, for example, daunomycin”. The “bound adriamycin vs amount of phosphatidic acid” value in [7] (80 μmoles total phospholipid, 20 μmoles cholesteryl oleate, 2 mg adriamycin, pH 7.2) was “increases with increasing amounts of phosphatidic acid”. For the same compound, the “phosphatidic acid content up to which bound adriamycin increases before levelling off” value in [7] (relative to total lipids) was “about 25 mole %”. For the same compound, the “therapeutic effect / survivors” value with L1210 leukemic cells was “some therapeutic effect for a short period of time; also recorded: all of the control mice and those receiving the free adriamycin had succumbed to leukemia and/or the toxic effect of the drug”. The “toxicity (survival at 30 days)” value in the data set with normal mice was “highly toxic; also recorded: survival of only one mouse”. For the same compound, the “solubility in aqueous buffer / water” value in data set [1] was “water soluble”.
In the case of `O=C(Nc1cccc(C2=NCCN2)c1)Nc1cccc(C2=NCCN2)c1` [imidocarb], in data set [8], the “imidocarb in the bloodstream after 24 hours” value was “virtually none”. For the same compound, the “tissue distribution, Kidney” value in data set [9] (kidney) is on record as 40,194 dpm/gram of tissue. For the same compound, the “tissue distribution, Liver” value in [9] (liver) was 27,059 dpm/gram of tissue. For the same compound, the “tissue distribution, Muscle” value in [9] (muscle) is reported as 3,985 dpm/gram of tissue. In addition, the “tissue distribution, Spleen” value in data set [9] (spleen) was 9,498 dpm/gram of tissue.

These data come from US4298594A, “Xenobiotic delivery vehicles, method of forming them and method of using them” (Arthur D. Little, Inc., priority 1980, dated 1981).
